Data reported in patent US8642592B2, “Oxo-heterocyclically substituted alkyl carboxylic acids and use thereof” (Bayer Intellectual Property GmbH, priority 2009, dated 2014).

Target: T1, soluble guanylate cyclase (sGC) (Rattus norvegicus, UniProt P20595)
T1 construct: made in house; host or cells: baculovirus/Sf9 insect cells
T1 sequence (P20595 1-619): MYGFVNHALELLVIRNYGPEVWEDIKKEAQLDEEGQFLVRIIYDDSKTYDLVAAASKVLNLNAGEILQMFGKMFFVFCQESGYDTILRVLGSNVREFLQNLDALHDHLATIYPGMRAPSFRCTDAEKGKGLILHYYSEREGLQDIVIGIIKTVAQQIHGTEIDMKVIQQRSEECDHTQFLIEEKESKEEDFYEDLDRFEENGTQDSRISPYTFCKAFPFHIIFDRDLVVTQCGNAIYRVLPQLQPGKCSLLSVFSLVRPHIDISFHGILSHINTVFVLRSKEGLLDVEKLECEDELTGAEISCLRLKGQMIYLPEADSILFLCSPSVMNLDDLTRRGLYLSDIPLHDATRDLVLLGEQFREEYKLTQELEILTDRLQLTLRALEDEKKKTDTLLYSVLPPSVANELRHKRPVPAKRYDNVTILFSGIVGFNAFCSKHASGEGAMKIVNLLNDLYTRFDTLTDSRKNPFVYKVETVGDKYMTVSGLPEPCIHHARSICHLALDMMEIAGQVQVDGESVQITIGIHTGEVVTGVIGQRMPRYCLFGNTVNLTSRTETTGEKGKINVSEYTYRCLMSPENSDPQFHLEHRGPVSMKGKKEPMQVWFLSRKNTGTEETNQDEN
T1 sequence (P19686 1-690 partner): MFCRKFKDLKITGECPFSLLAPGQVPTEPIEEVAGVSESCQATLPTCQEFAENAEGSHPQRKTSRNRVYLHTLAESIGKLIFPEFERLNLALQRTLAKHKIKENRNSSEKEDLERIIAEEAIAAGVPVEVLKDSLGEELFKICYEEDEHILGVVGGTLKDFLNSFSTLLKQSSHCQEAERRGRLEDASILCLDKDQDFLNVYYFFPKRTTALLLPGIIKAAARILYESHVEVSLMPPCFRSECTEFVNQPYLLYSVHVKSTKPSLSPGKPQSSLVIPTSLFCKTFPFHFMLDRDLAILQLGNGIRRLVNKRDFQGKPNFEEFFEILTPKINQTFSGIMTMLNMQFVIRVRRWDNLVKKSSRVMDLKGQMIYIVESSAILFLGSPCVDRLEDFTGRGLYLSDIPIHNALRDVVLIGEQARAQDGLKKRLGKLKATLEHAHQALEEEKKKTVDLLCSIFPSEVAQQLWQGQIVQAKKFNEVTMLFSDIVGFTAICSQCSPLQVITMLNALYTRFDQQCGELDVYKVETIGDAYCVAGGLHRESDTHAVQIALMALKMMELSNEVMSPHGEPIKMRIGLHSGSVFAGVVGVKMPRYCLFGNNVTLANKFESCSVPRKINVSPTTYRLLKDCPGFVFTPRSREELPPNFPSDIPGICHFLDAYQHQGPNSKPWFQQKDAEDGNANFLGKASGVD
Test: Stimulation of sGC enzyme activity (PPi/luciferase detection)
Format: biochemical
Settings: sGC enzyme in vitro
Procedure: Soluble guanylate cyclase (sGC) converts on stimulation GTP into cGMP and pyrophosphate (PPi). PPi is detected with the aid of the assay described below. The signal produced in the assay increases as the reaction progresses and serves as a measure of the sGC enzyme activity under the given stimulation.
To carry out the assay, 29 μl of enzyme solution [0-10 nM soluble guanylate cyclase (prepared according to Honicka et al., J. Mol. Med. 77, 14-23 (1999)) in 50 mM TEA, 2 mM MgCl2, 0.1% BSA (fraction V), 0.005% Brij®, pH 7.5] are initially introduced into a microplate, and 1 μl of the substance to be tested (as a serially diluted solution in DMSO) is added. The mixture is incubated at room temperature for 10 min. Then 20 μl of detection mix [1.2 nM Firefly Luciferase (Photinus pyralis luciferase, Promega), 29 μM dehydroluciferin (prepared according to Bitler & McElroy, Arch. Biochem. Biophys. 72, 358 (1957)), 122 μM luciferin (Promega), 153 μM ATP (Sigma) and 0.4 mM DTT (Sigma) in 50 mM TEA, 2 mM MgCl2, 0.1% BSA (fraction V), 0.005% Brij®, pH 7.5] are added. The enzyme reaction is started by adding 20 μl of substrate solution [1.25 mM guanosine 5′-triphosphate (Sigma) in 50 mM TEA, 2 mM MgCl2, 0.1% BSA (fraction V), 0.005% Brij®, pH 7.5] and measured continuously in a luminometer. The extent of the stimulation by the substance to be tested can be determined relative to the signal of the unstimulated reaction.
The activation of heme-free guanylate cyclase is examined by addition of 25 μM of 1H-1,2,4-oxadiazolo[4,3-a]quinoxalin-1-one (ODQ) to the enzyme solution and subsequent incubation for 30 minutes and compared to the stimulation of the native enzyme.

In the case of `O=C(NCCCCC1(C(=O)O)CC1)C(c1ccc(CN2N=C(c3ccccc3)OCC2=O)cc1)C1CCCC1` (single isomer, unassigned; (+)) [Example 1, (+)-1-(4-{[2-cyclopentyl-2-{4-[(5-oxo-2-phenyl-5,6-dihydro-4H-1,3,4-oxadiazin-4-yl)methyl]phenyl}-acetyl]amino}butyl)cyclopropanecarboxylic acid], the “MEC (minimum effective concentration), activating action at the sGC enzyme” value was 51 nM.
